From patent US7098169B2, “Herbicide-safener combination based on isoxazoline carboxylate safeners” (Bayer CropScience GmbH, priority 2001, dated 2006) come the findings set out here.

What all share (type): in vivo
The test system of assay [1] is TRZAS, Triticum aestivum (wheat). The assay is described as follows: Pre-emergence application of herbicide-safener combination, visual injury score in wheat (Table 2). Conditions: application rate 300 g a.i./ha. The protocol: (§1) The damage to the plants is assessed visually on a scale of 0–100% in comparison with control plants: • 0%=no noticeable effect in comparison with the untreated plant • 100%=the treated plant dies off. 3.2 Effect of the Herbicide and Effect of the Safener when Applied Pre-Emergence
(§2) Seeds or rhizome pieces of mono- and dicotyledonous harmful plants and of crop plants are placed in sandy loam soil in plastic pots of a diameter of 9 cm and covered with soil. Alternatively, harmful plants encountered in paddy rice cultivation are cultivated in water-saturated soil, where the amount of water poured into the pots is such that the water level is at the soil surface, or some millimeters above the soil surface. The herbicide/safener active compound combinations according to the invention, formulated in the form of emulsion concentrates, and, in parallel tests, the correspondingly formulated individual active compounds are then applied as emulsions to the surface of the soil cover in various dosages using an amount of water of 300 l/ha (converted), or, in the case of rice, are poured into the irrigation water. After the treatment, the pots are placed in a greenhouse and kept under good growth conditions for the weeds. […]

The test system of assay [2] is HORVS = Hordeum vulgare (barley). The assay is described as follows: Pre-emergence application of herbicide-safener combination, visual injury score in barley (Table 3). Conditions: application rate 300 g a.i./ha (herbicide alone). The protocol: as §1, §2
For a further assay, the system named is ZEAMA = Zea mays (maize). The experiment in a line: Post-emergence treatment, safening by (Ib), visual injury score in maize (Table 1). As for the experimental part:
3.2 Effect of the Herbicide and Effect of the Safener when Applied Pre-Emergence Seeds or rhizome pieces of mono- and dicotyledenous harmful plants and of crop plants are placed in sandy loam soil in plastic pots, covered with soil and cultivated in a greenhouse under good growth conditions. Alternatively, harmful plants encountered in paddy rice cultivation are cultivated in pots where the water level is up to 2 cm above the soil surface. Three weeks after sowing, the test plants are treated at the three-leaf stage. […] In a series of trials the ability of herbicides to be […] by safener (Ib) was evaluated.

As for `CCc1cccc(C)c1N(C(=O)CCl)[C@@H](C)COC` [(B5-1)], in assay [1], the “% injury to TRZAS” value was found to be 70%. Further, the “% injury to HORVS” value in assay [2] came out at 15%.
For the molecule `Nc1c(Cl)c(F)nc(OCC(=O)O)c1Cl` [(B2-4), 4-amino-3,5-dichloro-6-fluoro-2-pyridyloxyacetic acid], the “% injury to ZEAMA” value in the assay with ZEAMA = Zea mays (maize) (application rate 160 g a.i./ha) is reported as 9%.
On to `O=C(O)COc1nc(Cl)c(Cl)cc1Cl` [(B2-3), 3,5,6-trichloro-2-pyridyloxyacetic acid], for which, in the assay with ZEAMA = Zea mays (maize) (application rate 420 g a.i./ha), the “% injury to ZEAMA” value worked out at 22%.
Take `COc1ncc(F)c2nc(S(=O)(=O)Nc3c(F)cccc3F)nn12` [(B1-1), N-(2,6difluorophenyl)-8-fluoro-5-methoxy-1,2,4-triazolo[1,5-c]pyrimidin-2-sulfonamide]: the “% injury to ZEAMA” value in the assay on ZEAMA = Zea mays (maize) (application rate 10 g a.i./ha) worked out at 18%.
With `CCOC(=O)C(Cl)Cc1cc(-n2nc(C)n(C(F)F)c2=O)c(F)cc1Cl` (racemic) [(B4-1), ethyl (RS)-2-chloro-3-[2-chloro-5-(4-difluoromethyl-4,5-dihydro-3-methyl-5-oxo-1H-1,2,4-triazol-1-yl)-4-fluorophenyl]propionate], the “% injury to ZEAMA” value with ZEAMA = Zea mays (maize) (application rate 36 g a.i./ha) is 11%.
As for `CCOc1nc(F)cc2nc(S(=O)(=O)Nc3c(Cl)cccc3C(=O)OC)nn12` [(B1-2), methyl 3-chloro-(5-ethoxy-7-fluoro[1,2,4]triazole-[1,5-c]pyrimidin-2-ylsulfonamido)-benzoate], the “% injury to ZEAMA” value with ZEAMA = Zea mays (maize) (application rate 30 g a.i./ha) is reported as 32%.
Turning to `CSc1nnc(C(C)(C)C)c(=O)n1N` [(B3-1), 4-amino-6-tert-butyl-4,5-dihydro3-methylthio-1,2,4-triazin-5-one], in the assay with ZEAMA = Zea mays (maize) (application rate 560 g a.i./ha), the “% injury to ZEAMA” value turned out to be 23%.
